Patent publication US6391261B1, “Device for detecting analytes related to sample pH” (Lifepoint, Inc., priority 2000, dated 2002)

Tested on: cocaine antibody
Test: Cross-reactivity of the antibody used in the lateral flow competitive immunoassay for cocaine
Type: binding
Settings: dye labeled cocaine antibody of the saliva test cassette
Description: Each rapid oral fluid test cassette 70 included in this test kit consists of a lateral flow assay strip, a color intensity chart 78, a pH test section 82, and a pH chart 80. The lateral flow assay strip consists of color dye labeled cocaine antibody and a nitrocellulose membrane coated with cocaine-Bovine Serum […] (“BSA”) conjugate. When a saliva sample is applied to the sample section of the cassette, the saliva sample will migrate by capillary movement to the dye-antibody zone and the cocaine-BSA membrane zone. If the sample tested is negative, the dye-antibody will bind with the membrane cocaine-BSA conjugate to form a red band on the membrane.
If the sample tested contains cocaine, cocaine in the sample will bind with the dye-antibody, and thus the binding between the dye-antibody and the membrane cocaine-BSA is prevented. The unbound dye-antibody will migrate away from the membrane to an absorbent pad. As a result, the intensity of the color band appearing on the membrane is inversely proportional to the concentration of cocaine in the saliva sample. A semi-quantitative result of cocaine concentration in the saliva sample is achieved by comparing the color band with a color intensity chart.

| Compound | cross-reactivity of the assay antibody as compared with cocaine |
| --- | --- |
| CN1[C@H]2CC[C@@H]1[C@@H](C(=O)O)[C@@H](OC(=O)c1ccccc1)C2 [benzoylecgonine] | less than 5% |
| COc1ccc2c3c1O[C@H]1[C@@H](O)C=C[C@H]4[C@@H](C2)N(C)CC[C@@]341 [codeine] | No significant cross-reactivity |
| CCO [ethanol] | No significant cross-reactivity |
| CN[C@@H](C)Cc1ccccc1 [methamphetamine] | No significant cross-reactivity |
| CN1CC[C@]23c4c5ccc(O)c4O[C@H]2[C@@H](O)C=C[C@H]3[C@H]1C5 [morphine] | No significant cross-reactivity |
| c1ccc(C2(N3CCCCC3)CCCCC2)cc1 [phencyclidine] | No significant cross-reactivity |
| tetrahydrocannabinols | No significant cross-reactivity |
